# Test results reported in patent publication US11542256B2, “Vinylheterocycles as Rho-associated coiled-coil kinase (ROCK) inhibitors” (ANGION BIOMEDICA CORP., priority 2017, dated 2023).
# Legend:
# ROCK1 = biological target: T1, ROCK1 (Homo sapiens, UniProt Q13464); experiment: KINOMEscan KdELECT kinase binding assay, ROCK1; conditions: equilibrium dissociation constant, 11-point 3-fold dilution series
# T1 construct: purchased DiscoverX (KINOMEscan KdELECT service); host or cells: E. coli BL21-derived (T7 phage) or HEK-293
# T1 sequence (Q13464 whole entry): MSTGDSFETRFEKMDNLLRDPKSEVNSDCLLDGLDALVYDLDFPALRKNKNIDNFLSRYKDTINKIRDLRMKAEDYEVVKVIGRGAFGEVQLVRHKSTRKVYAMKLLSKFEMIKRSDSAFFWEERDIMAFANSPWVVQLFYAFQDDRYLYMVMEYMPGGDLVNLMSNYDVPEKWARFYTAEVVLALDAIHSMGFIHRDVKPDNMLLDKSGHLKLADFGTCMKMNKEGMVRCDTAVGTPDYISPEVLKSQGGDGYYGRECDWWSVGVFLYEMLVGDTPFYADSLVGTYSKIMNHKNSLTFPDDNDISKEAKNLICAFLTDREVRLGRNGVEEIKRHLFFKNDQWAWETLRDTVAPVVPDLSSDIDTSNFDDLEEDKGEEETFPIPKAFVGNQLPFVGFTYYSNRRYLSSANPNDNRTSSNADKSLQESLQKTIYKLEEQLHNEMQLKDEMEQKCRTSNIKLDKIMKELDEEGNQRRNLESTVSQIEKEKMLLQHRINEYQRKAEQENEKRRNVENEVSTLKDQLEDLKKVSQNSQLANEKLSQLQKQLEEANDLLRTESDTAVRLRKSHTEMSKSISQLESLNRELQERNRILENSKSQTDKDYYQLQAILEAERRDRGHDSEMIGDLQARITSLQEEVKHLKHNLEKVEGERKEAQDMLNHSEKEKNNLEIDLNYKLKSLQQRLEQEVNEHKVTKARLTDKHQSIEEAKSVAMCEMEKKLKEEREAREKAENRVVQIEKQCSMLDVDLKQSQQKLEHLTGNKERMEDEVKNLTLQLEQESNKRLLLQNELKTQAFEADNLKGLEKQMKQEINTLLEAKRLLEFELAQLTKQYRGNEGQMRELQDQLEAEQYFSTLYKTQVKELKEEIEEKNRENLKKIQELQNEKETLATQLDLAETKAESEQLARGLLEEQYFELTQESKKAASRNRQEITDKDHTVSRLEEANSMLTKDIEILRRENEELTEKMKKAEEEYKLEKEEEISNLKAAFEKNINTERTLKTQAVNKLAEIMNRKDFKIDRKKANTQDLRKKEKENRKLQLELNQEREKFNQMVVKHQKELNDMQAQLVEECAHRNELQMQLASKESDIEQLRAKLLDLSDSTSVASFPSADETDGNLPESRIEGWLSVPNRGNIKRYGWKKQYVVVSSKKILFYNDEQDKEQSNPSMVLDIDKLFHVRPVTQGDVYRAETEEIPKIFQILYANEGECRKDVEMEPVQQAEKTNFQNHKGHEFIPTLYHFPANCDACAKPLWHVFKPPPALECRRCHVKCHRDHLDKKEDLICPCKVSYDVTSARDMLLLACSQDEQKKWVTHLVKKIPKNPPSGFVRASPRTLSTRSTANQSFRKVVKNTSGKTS
# Protocol: (§1) The ROCK1 and ROCK2 kinase binding affinities of compounds in this invention were determined by DiscoverX's KINOMEscan™ KdELECT technology (https://www.discoverx.com/kinomescan-elect-kinase-screening-and-profiling-services): Kinase-tagged T7 phage strains were prepared in an E. coli host derived from the BL21 strain. E. coli were grown to log-phase and infected with T7 phage and incubated with shaking at 32° C. until lysis. The lysates were centrifuged and filtered to remove cell debris. The remaining kinases were produced in HEK-293 cells and subsequently tagged with DNA for qPCR detection. Streptavidin-coated magnetic beads were treated with biotinylated small molecule ligands for 30 minutes at room temperature to generate affinity resins for kinase assays. The liganded beads were blocked with excess biotin and washed with blocking buffer (SeaBlock (Pierce), 1% BSA, 0.05% Tween 20, 1 mM DTT) to remove unbound ligand and to reduce nonspecific binding. […] Test compounds were prepared as […] in 100% DMSO. Kds were determined using an […] 3-fold compound dilution series with three DMSO control points. […] The compounds were then diluted directly into the assays such that the final concentration of DMSO was 0.9%. All reactions performed in polypropylene 384-well plate. Each was a final volume of 0.02 ml. […] The kinase concentration in the eluates was measured by qPCR.
# ROCK2 = biological target: T2, ROCK2 (Homo sapiens, UniProt O75116); experiment: KINOMEscan KdELECT kinase binding assay, ROCK2; conditions: equilibrium dissociation constant, 11-point 3-fold dilution series
# T2 construct: purchased DiscoverX (KINOMEscan KdELECT service); host or cells: E. coli BL21-derived (T7 phage) or HEK-293
# T2 sequence (O75116 whole entry): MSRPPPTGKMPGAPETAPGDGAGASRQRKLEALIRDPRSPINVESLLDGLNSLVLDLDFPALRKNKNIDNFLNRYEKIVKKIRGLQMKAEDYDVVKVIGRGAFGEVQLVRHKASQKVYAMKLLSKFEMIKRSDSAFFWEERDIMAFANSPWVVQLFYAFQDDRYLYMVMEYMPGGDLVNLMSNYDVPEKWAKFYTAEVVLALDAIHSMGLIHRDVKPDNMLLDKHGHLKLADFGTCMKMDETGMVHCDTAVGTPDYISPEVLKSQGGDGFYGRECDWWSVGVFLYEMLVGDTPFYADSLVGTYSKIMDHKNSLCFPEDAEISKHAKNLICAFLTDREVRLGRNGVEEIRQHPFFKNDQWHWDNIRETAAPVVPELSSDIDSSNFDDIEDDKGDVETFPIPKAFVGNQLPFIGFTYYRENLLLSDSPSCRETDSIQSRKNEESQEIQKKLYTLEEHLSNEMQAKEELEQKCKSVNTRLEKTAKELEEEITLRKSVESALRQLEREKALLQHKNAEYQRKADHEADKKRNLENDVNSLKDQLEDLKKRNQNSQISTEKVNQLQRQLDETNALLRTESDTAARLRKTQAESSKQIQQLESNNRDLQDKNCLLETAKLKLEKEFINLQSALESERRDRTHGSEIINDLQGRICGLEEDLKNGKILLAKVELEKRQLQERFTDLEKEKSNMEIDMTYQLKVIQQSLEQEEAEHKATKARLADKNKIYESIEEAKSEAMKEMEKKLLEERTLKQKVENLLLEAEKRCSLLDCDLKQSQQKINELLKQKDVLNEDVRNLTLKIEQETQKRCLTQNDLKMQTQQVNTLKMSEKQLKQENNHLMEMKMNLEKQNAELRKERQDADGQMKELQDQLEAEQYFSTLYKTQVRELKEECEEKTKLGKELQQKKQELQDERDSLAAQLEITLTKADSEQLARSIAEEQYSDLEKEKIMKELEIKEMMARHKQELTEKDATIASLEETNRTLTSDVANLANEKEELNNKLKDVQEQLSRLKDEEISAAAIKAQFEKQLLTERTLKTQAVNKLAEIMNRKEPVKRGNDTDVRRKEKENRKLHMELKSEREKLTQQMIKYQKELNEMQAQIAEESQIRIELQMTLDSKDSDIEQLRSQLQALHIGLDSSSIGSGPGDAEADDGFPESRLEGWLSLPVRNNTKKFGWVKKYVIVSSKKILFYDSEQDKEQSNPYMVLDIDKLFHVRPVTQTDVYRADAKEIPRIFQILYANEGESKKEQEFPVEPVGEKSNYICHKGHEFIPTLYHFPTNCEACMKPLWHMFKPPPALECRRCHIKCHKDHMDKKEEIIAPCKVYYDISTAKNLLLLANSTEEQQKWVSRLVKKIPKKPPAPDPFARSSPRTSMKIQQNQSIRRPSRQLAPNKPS
# Protocol: as §1
# [1] = test system: BDL model, adult male C57BLU6 mice; experiment: Biliary obstruction model (bile duct ligation, BDL); type: in vivo; conditions: 10 mg/kg PO BID; for MAP (mean arterial pressure) versus sham and BDL+vehicle: BDL C57BLU6 mice, day 9, FIG. 1
# Protocol: Adult male C57BLU6 mice were submitted to standard bile duct ligation (BDL model: Luo, W., Meng, Y., Ji, H. L., Pan, C. Q., Huang, S., Yu, C. H., Xiao, L. M., Cui, K., Ni, S. Y., Zhang, Z. S., Li, X. Spironolactone lowers portal hypertension by inhibiting liver fibrosis, ROCK-2 activity and activating NO/PKG pathway in the bile-duct-ligated rat. PLoS One 2012, 7(3), e34230) and treated with vehicle (n=7; 50% PEG300+10% tween 80+40% saline, the formulation for Ex. 1) or Ex. 1 (n=3; 10 mg/kg, PO, BID), starting a day after BDL surgery. In this study, animals were sacrificed 9 days after BDL. A subset of BDL animals was treated with fasudil (n=2; 10 mg/kg, PO, BID) to compare hemodynamic effects (on day 9) of a ROCK2-selective inhibitor vs. a dual ROCK1/2 inhibitor in this model of liver injury/disease. A sham group served as control.
# The BDL model is a model of cholestatic injury and is associated with both inflammation and biliary sclerosis. This was evident even by day 9 in the BDL+vehicle-treated cohort (p<0.01 vs. sham). […] Treatment with a compound of the invention was also associated with a reduction in biliary inflammation (H&E sections, FIG. 4A) and the necro-inflammatory score (FIG. 4B).
# male CD-1 mice = experiment: Mean arterial pressure after bile duct ligation in CD-1 mice; type: in vivo; conditions: BDL CD-1 mice, 10 mg/kg orally BID for 10 days, carotid catheter under isoflurane
# Protocol: The experiments were performed on male CD-1 mice (10-11 week-old), purchased from Charles River Laboratories, MA. After arrival, the animals were housed in the Angion Biomedica animal care facility and allowed 5 days for acclimatization in room having an ambient temperature of 23±2° C. and 12 hr dark/light cycle. The animals were fed normal rodent chow and tap water was provided ad libitum. All the animal experimental protocols were approved by the Institutional Animal Care and Use Committee at the Angion Biomedica.
# For bile duct ligation (BDL), we performed midline laparotomy of a length of approximately 1.5-2 cm by cutting the cutis plus fascia with a blunt end surgical scissor. The bile duct was then exposed by caudal movement of the gut. […] Animals were allowed to recover under heating pads and were monitored closely for signs of discomfort or pain.
# After 24 hrs of bile duct ligation, the CD-1 mice (N=8-10 per group,) were treated with normal saline as vehicle and the Fasudil (10 mg/kg/body weight) and Compound of Ex. 1 (10 mg/kg body weight) groups were treated orally (BID) for 10 days. […] After 10 days of treatment, animals were anesthetized and mean arterial pressure was measured.
# Mice were anaesthetized using isoflurane. […] The animals were maintained on heating pads throughout the surgery and temperature was recorded by inserting a temperature probe in the rectum. […]
Structure (SMILES),Kd (ROCK1) [µM],Kd (ROCK2) [µM],MAP (mean arterial pressure) versus sham and BDL+vehicle [1],"biliary thickening (bile duct wall thickness) ([1]; BDL mice, day 9, H&E sections and quantitative analysis, FIG. 2 and 3)",change (decrease) in mean arterial blood pressure (male CD-1 mice)
"CCNC(=O)COc1ccc2c(c1)CN(c1nccc(-c3nccc(/C=C/c4ccncc4)n3)n1)C2 [Ex. 12, (E)-N-Ethyl-2-((2-(4-(2-(pyridin-4-yl)vinyl)-[2,4′-bipyrimidin]-2′-yl)isoindolin-5-yl)oxy)acetamide]",15,0.18,–,–,–
"O=S(=O)(Oc1ccc2c(c1)CN(c1nccc(-c3nccc(/C=C/c4ccncc4)n3)n1)C2)C(F)(F)F [Ex. 7, (E)-2-(4-(2-(Pyridin-4-yl)vinyl)-[2,4′-bipyrimidin]-2′-yl)isoindolin-5-yl Trifluoromethanesulfonate]",> 30,0.91,–,–,–
"COc1ccc2c(c1)CN(c1nccc(-c3nccc(/C=C/c4ccncc4)n3)n1)C2 [Ex. 1, (E)-5-Methoxy-2-(4-(2-(pyridine-4-yl)vinyl)-[2,4′-bipyrimidin]-2′-yl)isoindoline]",> 30,0.14,not different,reduction in biliary thickening,did not cause any change
"N#Cc1ccc2c(c1)CN(c1nccc(-c3nccc(/C=C/c4ccncc4)n3)n1)C2 [Ex. 8, (E)-2-(4-(2-(Pyridin-4-yl)vinyl)-[2,4′-bipyrimidin]-2′-yl)isoindoline-5-carbonitrile]",0.68,0.11,–,–,–
"COc1ccc2c(c1)CN(c1nccc(-c3nccc(/C=C/c4ccnc5ccccc45)n3)n1)C2 [Ex. 3, (E)-4-(2-(2′-(5-Methoxyisoindolin-2-yl)-[2,4′-bipyrimidin]-4-yl)vinyl)quinoline]",> 30,> 30,–,–,–
"CNC(=O)COc1ccc2c(c1)CN(c1nccc(-c3nccc(/C=C/c4ccncc4)n3)n1)C2 [Ex. 11, (E)-N-Methyl-2-((2-(4-(2-(pyridin-4-yl)vinyl)-[2,4′-bipyrimidin]-2′-yl)isoindolin-5-yl)oxy)acetamide]",1.1,0.11,–,–,–
"Oc1ccc2c(c1)CN(c1nccc(-c3nccc(/C=C/c4ccncc4)n3)n1)C2 [Ex. 6, (E)-2-(4-(2-(Pyridin-4-yl)vinyl)-[2,4′-bipyrimidin]-2′-yl)isoindolin-5-ol]",> 30,0.12,–,–,–
"CC(C)NC(=O)COc1ccc2c(c1)CN(c1nccc(-c3nccc(/C=C/c4ccncc4)n3)n1)C2 [Ex. 13, (E)-N-Isopropyl-2-((2-(4-(2-(pyridin-4-yl)vinyl)-[2,4′-bipyrimidin]-2′-yl)isoindolin-5-yl)oxy)acetamide]",13,0.13,–,–,–
"COc1ccc2c(c1)CN(c1nccc(-c3nccc(/C=C/c4ccnc(N)n4)n3)n1)C2 [Ex. 5, (E)-4-(2-(2′-(5-Methoxyisoindolin-2-yl)-[2,4′-bipyrimidin]-4-yl)vinyl)pyrimidin-2-amine]",> 30,2,–,–,–
"CN(C)CCOc1ccc2c(c1)CN(c1nccc(-c3nccc(/C=C/c4ccncc4)n3)n1)C2 [Ex. 9, (E)-N,N-Dimethyl-2-((2-(4-(2-(pyridin-4-yl)vinyl)-[2,4′-bipyrimidin]-2′-yl)isoindolin-5-yl)oxy)ethanamine]",2.4,0.085,–,–,–
"Fc1ccc2c(c1)CN(c1nccc(-c3nccc(/C=C/c4ccncc4)n3)n1)C2 [Ex. 14, (E)-5-Fluoro-2-(4-(2-(pyridine-4-yl)vinyl)-[2,4′-bipyrimidin]-2′-yl)isoindoline]",26,1.2,–,–,–
"O=S(=O)(c1cccc2cnccc12)N1CCCNCC1 [fasudil, reference compound]",–,–,decreased MAP,–,~26 mm Hg
"COc1ccc2c(c1)CN(c1nccc(-c3nccc(/C=C/c4ccnc5[nH]ccc45)n3)n1)C2 [Ex. 4, (E)-4-(2-(2′-(5-Methoxyisoindolin-2-yl)-[2,4′-bipyrimidin]-4-yl)vinyl)-1H-pyrrolo[2,3-b]pyridine]",8,1.8,–,–,–
